Source: PubChem BioAssay AID179 (DTP/NCI, 2004)
Several values for one entry are separate records, joined by “and”; a condition that tells them apart may be missing. Equal entries are not always repeated. Activity calls are given as the source filed them.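 Rule for the calls: active = compounds giving half or more protection of infected cells from virus-caused growth loss, again on retest; inactive = the rest.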 Where a SMILES comes first, the peptide text is derived from it.

Test system: CEM cells HIV-1 protection, formazan growth assay
Assay: NCI AIDS Antiviral Assay
Details: for IC50: measured here: growth of uninfected CEM cells
Summary of the method: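 Five concentrations of each compound were applied to infected and uninfected human CEM cells. Protection from HIV-1 was judged from growth measured with a soluble formazan assay.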

Row | Structure (SMILES) | EC50 [µM] | IC50 | outcome
1 | C/C=C/C[P+](c1ccccc1)(c1ccccc1)c1ccccc1 | > 200 | 1.48 µM and 1.32 µM | –
2 | C(=C/c1ccc2nc(-c3ccc(/C=C/C=N/NC4=NCCCN4)cc3)cn2c1)/C=N/NC1=NCCCN1 | > 100 | 16.6 µM | –
3 | c1ccc(N2CC3CSc4c(ccc5ccccc45)C3=N2)cc1 (stereo not drawn) | > 200 | 162 µM | –
4 | CCOC(=O)Cc1nnc2n(-c3ccccc3)c(=O)c3ccccc3n12 | > 100 | > 100 µM | –
5 | CCCOc1cnc([C@H]2CCC3[C@@H]4CC=C5C[C@@H](O)CC[C@]5(C)C4CC[C@@]32C)s1 (stereo partly drawn) | > 60.3 | > 60.3 µM | –
6 | Nc1nc(Cl)c(/C=N\O)c(NCC2(CO)CCC2)n1 | > 20 | 11.5 µM | –
7 | O=C(O)CN(CCOCCOCCN(CC(=O)O)CC(=O)O)CC(=O)O | > 95.5 | 3.02 µM | –
8 | COc1ccc(N2C(=O)/C(=C/c3ccc(N(CCC#N)CCC#N)cc3C)N=C2c2cc([N+](=O)[O-])ccc2Cl)cc1 | > 12.6 | 3.02 µM | –
9 | CCN(CC)c1c(C(=O)/C=C/c2ccc(Cl)cc2)c(-c2ccccc2)nn(C)c1=O | > 23.4 | 4.9 µM | –
10 | COc1ccc(N2C(=O)C3c4[nH]c5ccc(C)cc5c4C4CCC(C(C)C)CC4C3C2=O)cc1 (stereo not drawn) | – | – | inactive
11 | COC(=O)C[P+](c1ccccc1)(c1ccccc1)c1ccccc1 | > 200 | > 200 µM | –
12 | c1ccc2nc(NCCSSCCNc3cnc4ccccc4n3)cnc2c1 | > 200 | 24.5 µM | –
13 | COc1ccc(C2=NN(C(C)=O)c3nc4ccccc4nc3O2)cc1 | – | – | inactive
14 | COc1ccc(/C=C/C(=O)C(C)(C)C)cc1 | – | – | inactive
15 | CN1CC[C@@H](c2c(O)cc(O)c3c(=O)cc(-c4ccccc4Cl)oc23)[C@@H](O)C1 | 0.01 | 0.0468 µM | –
16 | COc1ccc(C(c2ccc(C(C)C)cc(OC)c2=O)c2ccc(C(C)C)cc(OC)c2=O)cc1 | – | – | inactive
17 | CC(C)N=C(NC#N)NS(=O)(=O)c1cnccc1NC1CCCCCCC1 | > 200 | > 200 µM | –
18 | COC(=O)CNCC1OC2OC(C)(C)OC2C1N=[N+]=[N-] (stereo not drawn) | > 200 | > 200 µM | –
19 | O=c1[nH]c(=O)n(C2CC(O)C(CO)O2)cc1C#Cc1ccc(C(F)(F)F)cc1 (stereo not drawn) | > 631 | 91.2 µM | –
20 | CON(C)c1nc(Cl)nc(N(C)OC)n1 | > 200 | > 200 µM | –
21 | CC(=O)OCC(CC[CH2][Sn]([Cl])([Cl])[c]1ccccc1)OC(C)=O (stereo not drawn) | – | – | inactive
22 | O=c1c(Cc2ccccc2)c(-c2ccccc2)[nH]n1C1=NCCN1 | > 200 | 19.1 µM | –

Row | Structure (SMILES) | EC50 [µM] | IC50 | outcome
23 | COc1ccccc1Nc1nc(N)nc(N)c1N | > 200 | 36.3 µM | –
24 | CC(=O)Nc1ccc(N2C(=O)/C(=C\c3cccc(Oc4ccccc4)c3)S(=O)(=O)C2c2ccccc2)cc1 (stereo not drawn) | > 200 | 26.9 µM | –
25 | Cc1ccc(S(=O)(=O)N/N=C(\C(=O)Nc2cccc([N+](=O)[O-])c2)c2nc3ccc([N+](=O)[O-])cc3[nH]c2=O)cc1 | > 123 | 115 µM | –
26 | CN(C)Cc1cc(C(=O)/C=C/c2c(F)cccc2Cl)cc(CN(C)C)c1O | > 20 | 4.68 µM | –
27 | NNCCc1n[nH]c(=O)n1N | > 200 | > 200 µM | –
28 | OCC1OCOC2COCOC12 (stereo not drawn) | > 200 | > 200 µM | –
29 | NCC(=O)NC1(C(=O)O)CCCC1 (HELM PEPTIDE1{G.[O=C(O)C1(N[*:1])CCCC1]}$$$$V2.0) | > 200 | > 200 µM | –
30 | NC(C(F)(F)F)(C(F)(F)F)P(=O)(c1ccccc1)c1ccccc1 | > 200 | > 200 µM | –
31 | CC1=C(C(=O)Nc2c(C)cccc2C)C(c2ccc3c(c2)OCO3)C(C(=O)Nc2c(C)cccc2C)=C(C)N1 | > 25.7 | > 25.7 µM | –
32 | CC1=CCC2CC1NC(=O)CCOCCC(=O)NC2(C)C (stereo not drawn) | > 100 | > 100 µM | –
33 | N#CC1(C#N)C2C=CC(c3coc4cccc2c34)C1(C#N)C#N (stereo not drawn) | – | – | inactive
34 | O=P1(c2ccccc2)C(c2ccccc2)CCC1c1ccccc1 (stereo not drawn) | > 200 | 85.1 µM | –
35 | C/C=C1/CN2C3CC1C1(C(=O)OC)C(OC(C)=O)[C@]4(C[C@H]21)c1cc(OC)ccc1N(C)C34 (stereo partly drawn) | – | – | inactive
36 | Cn1c2c(c(=O)[nH]c1=O)OCN(Cc1ccccc1)C2 | > 251 | 29.5 µM | –
37 | Cc1ccsc1C(=O)C(CC(=O)c1cccs1)c1ccsc1 (stereo not drawn) | – | – | inactive
38 | O=C1CCC2(c3ccc(F)cc3)Nc3cc([N+](=O)[O-])ccc3N12 (stereo not drawn) | > 16.6 | > 16.6 µM | –
39 | CC1=C(C(=O)NCCCN(CCO)CCO)CC(C(=O)NCCCN(CCO)CCO)=C(C)N1 | > 200 | 112 µM | –
40 | CCc1cc(Cc2cc(CC)c(NC(=O)C(=O)CC(=O)c3sc(-c4cccnc4)nc3C)c(CC)c2)cc(CC)c1NC(=O)C(=O)CC(=O)c1sc(-c2cccnc2)nc1C | > 105 | > 105 µM | –
41 | O=C(N/C(=C\c1cccc([N+](=O)[O-])c1)c1nc2[nH]c(=S)[nH]c(=O)c2[nH]1)c1ccccc1 | – | – | inactive
42 | CC(C)(C)C(=O)C(C(=O)C(C)(C)C)C(=O)C(C)(C)C | – | – | inactive
43 | COc1ccc(C2SC(N)=Nc3c2c(C)nn3C(=O)c2ccccc2O)cc1OC (stereo not drawn) | > 20 | 0.617 µM | –
44 | CCCCCC(/C=C/[C@@H]1[C@@H](C(O)CCCCCC(=O)OC)C(=O)C[C@H]1O[Si](C)(C)C(C)(C)C)OCOCCOC (stereo partly drawn) | – | – | inactive

Row | Structure (SMILES) | EC50 [µM] | IC50 | outcome
45 | O=C1NC23CC=CCC12CCC3 (stereo not drawn) | > 1230 | > 1230 µM | –
46 | NC(=O)c1cc(-c2ccc(-n3ccnc3)cc2)n[nH]c1=O | > 200 | 155 µM | –
47 | O=C1CCCC2=C1C(c1ccncc1)Nc1ccccc1N2 (stereo not drawn) | > 200 | > 200 µM | –
48 | CC(NC(=O)C1CCCN1C(=O)OC(C)(C)C)C(=O)OCc1ccccc1 (stereo not drawn) | > 95.5 | 60.3 µM | –
49 | Cc1c2c(n(Cc3ccccn3)c1C)NN=C(C#N)S2(=O)=O | > 200 | > 200 µM | –
50 | N=C(N)SCN1C(=O)c2ccccc2C1=O | > 200 | > 200 µM | –
51 | Ic1ccccc1SSc1ccccc1I | > 200 | 8.71 µM | –
52 | Nc1cnc2c(c1)c(=O)nc1n2CCS1 | > 200 | 117 µM | –
53 | COC(=O)C1(Cc2ccccc2)Cc2ccccc2C1 | > 200 | 35.5 µM | –
54 | CC1CC(C)C2=NOS3=C2C1=NO3 (stereo not drawn) | > 200 | > 100 µM | –
55 | O=c1oc2cc(O)ccc2c(O)c1C(c1ccc2ccccc2c1)c1c(O)c2ccc(O)cc2oc1=O | – | – | inactive
56 | CC(=O)OCC1OC(n2c3c(c(-c4ccc(C)cc4)c(C#N)c2=S)C(=O)CC(C)(C)C3)C(OC(C)=O)C(OC(C)=O)C1OC(C)=O (stereo not drawn) | > 200 | 16.6 µM | –
57 | Cc1cc2c(c(C)c1O)C(C)(C)CN2C(=O)C(C)(C)C | > 200 | 74.1 µM | –
58 | CC(C)(c1cn(Cc2ccccc2)c2ccccc12)c1cn(Cc2ccccc2)c2ccccc12 | – | – | inactive
59 | c1csc(-c2cc(-c3cccs3)c(-c3ccsc3)s2)c1 | > 200 | 33.1 µM | –
60 | CCc1ccccc1NC(=O)C(=O)CC(=O)c1sc(Nc2ccccc2Cl)nc1C | > 200 | 87.1 µM | –
61 | NNC(=O)N/N=C1\CN(c2ccc(Cl)cc2Cl)C(=O)C(=O)C1c1nc2ccccc2o1 (stereo not drawn) | – | – | inactive
62 | COC12COC(=O)C1C(c1ccc3c(c1)OCO3)c1cc3c(cc1O2)OCO3 (stereo not drawn) | > 200 | 9.12 µM | –
63 | Nc1nc(=S)[nH]c(C(=O)Nc2nccs2)c1-c1ccccc1 | > 21.9 | > 21.9 µM | –
64 | CC1(C)CC(=O)c2c(nc3c(ccc4ccccc43)c2-c2ccc(NC(=O)CCC(=O)Nc3ccc(-c4c5c(nc6c4ccc4ccccc46)CC(C)(C)CC5=O)cc3)cc2)C1 | > 100 | > 100 µM | –
65 | COc1ccc(/C=N/N/C(O)=c2/sc(=C(C#N)C#N)n(-c3ccccc3)c2=N)cc1 | > 9.12 | > 9.12 µM | –
66 | CC1(C)OC2OC(COC(=O)c3ccc(C#N)cc3)C3OC(C)(C)OC3C2O1 (stereo not drawn) | – | – | inactive

Row | Structure (SMILES) | EC50 [µM] | IC50 | outcome
67 | O=C1C2=Cc3ccccc3CCN2c2ccccc21 | > 200 | 26.9 µM | –
68 | CCCCn1cc(C(=O)O)c(=O)c2c3sccc3ccc21 | > 200 | 22.4 µM | –
69 | COc1cc(Oc2nc3cc(F)c(F)cc3nc2-c2ccccc2)cc(OC)c1OC | > 100 | 35.5 µM | –
70 | COc1nc(OC)n(C)c(=O)c1OP(=O)(OC)OC | > 200 | > 200 µM | –
71 | C=CCc1cc(OC)c2c(c1)C(O)CC(c1ccc(OC)c(OC)c1)O2 (stereo not drawn) | > 263 | > 263 µM | –
72 | O=C(O)CCCCCCCc1cc(O)ccc1[N+](=O)[O-] | > 200 | > 200 µM | –
73 | NC(=O)Cc1nc2c(N)ncnc2n1C1OC(CO)C(O)C1O (stereo not drawn) | > 200 | > 200 µM | –
74 | O=C1CCCC1CC(CN1CCOCC1)Sc1nnnn1-c1ccccc1 (stereo not drawn) | > 200 | > 200 µM | –
75 | Cc1ccc(NC(=O)c2ccccc2)c(=O)o1 | > 200 | > 200 µM | –
76 | C=C(C)C(=O)NC(N)=NC#N | > 1620 | 28.8 µM | –
77 | O=C(NNc1nc2ccccc2n2cccc12)c1cnccn1 | > 2 | 0.417 µM | –
78 | COC(=O)C(Cc1ccccc1)NC(=O)C(CCC(=O)OCc1ccccc1)NC(=O)OC(C)(C)C (stereo not drawn) | > 200 | 28.8 µM | –
79 | CC(=O)N/C(=C\c1ccc(/C=C(\NC(C)=O)c2nc3ccc(Cl)cc3[nH]2)cc1)c1nc2ccccc2[nH]1 | – | – | inactive
80 | CC(C)CCCC(C)[C@H]1CC[C@@H]2[C@H]3CC[C@H]4C[C@@H](CCC=C(c5cc(Cl)c(OCc6cccc([N+](=O)[O-])c6)c(C(=O)O)c5)c5cc(Cl)c(OCc6cccc([N+](=O)[O-])c6)c(C(=O)O)c5)CC[C@]4(C)[C@@H]3CC[C@]12C (stereo partly drawn) | > 200 | > 200 µM | –
81 | CC(NNC(=O)c1ccncc1)c1ccc(F)cc1 (stereo not drawn) | > 200 | 12.3 µM | –
82 | COc1cccc(NC(=O)CSc2nnc(-c3ccc(N=Cc4ccc(Cl)cc4)cc3)o2)c1 | > 75.9 | 25.1 µM | –
83 | COc1cc2c3cc1Oc1c(OC)c(OC)cc4c1[C@H](Cc1cc5c(c(c1)Oc1ccc(cc1)CC3N(C)CC2)OCO5)N(C)CC4 (stereo partly drawn) | – | – | inactive
84 | Cc1cc(S(=O)(=O)Nc2nc(N)nc(N(C)C)n2)c(S)cc1Cl | > 182 | 166 µM | –
85 | COc1ccc(C2Oc3c(cc(O)c(OC)c3C)[C@@H]2C)cc1OC (stereo partly drawn) | > 79.4 | 47.9 µM | –
